Data set [1] deals with gastric cancer cell line (NUGC-3). Kind of data set: Cancer proliferation inhibitory activity (SRB, GI50), NUGC-3. It counts as cell-based. The conditions noted are these: Homo sapiens, 48 hours. Summed up: (§1)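 GI50 values come from an SRB protein-staining assay after 48 h of treatment with compound between 0.1 μM and 10 μM.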
The nature of data set [2]: Body weight of mice in prostate cancer xenograft model. To be noted: 50 mg/kg (SAHA 100 mg/kg) once a day for 16 days. It counts as in vivo. As for the experimental part: When the tumor size reached 40-60 mm^3, the mice were randomly grouped (4 mice per group), which were the non-treated group (10% dimethylacetamide, 10% tween 80 and 80% distilled water), the groups treated with the compounds of comparative examples 1 and 2 (Ajoene, 50 mg/kg), the groups treated with the compounds of examples 18 and 32 (50 mg/kg), and the group treated with the positive control SAHA (Vorinostat, 100 mg/kg). The treatment was performed once a day for 16 days in total. During the treatment, the tumor size was measured with a vernier caliper, followed by evaluation according to the following formula: length (mm)×width (mm)×height (mm)/2. The weights were measured regularly.
Upon completion of the treatment (16 days later), the mice were sacrificed and the tumor weights were measured. All the experiments were performed according to the experiment protocol approved by Institutional Animal care and Use Committee (IACUC), Korea Research Institute of Bioscience and Biotechnology (KRIBB).

Data set [3] concerns renal cancer cell line (ACHN). The data set can be described thus: Cancer proliferation inhibitory activity (SRB, GI50), ACHN. It counts as cell-based. To be noted: Homo sapiens, 48 hours. Summed up:
as §1

The target of another data set is T1, HDAC 6 (Homo sapiens, UniProt Q9UBN7).
T1 sequence (Q9UBN7 1-1215): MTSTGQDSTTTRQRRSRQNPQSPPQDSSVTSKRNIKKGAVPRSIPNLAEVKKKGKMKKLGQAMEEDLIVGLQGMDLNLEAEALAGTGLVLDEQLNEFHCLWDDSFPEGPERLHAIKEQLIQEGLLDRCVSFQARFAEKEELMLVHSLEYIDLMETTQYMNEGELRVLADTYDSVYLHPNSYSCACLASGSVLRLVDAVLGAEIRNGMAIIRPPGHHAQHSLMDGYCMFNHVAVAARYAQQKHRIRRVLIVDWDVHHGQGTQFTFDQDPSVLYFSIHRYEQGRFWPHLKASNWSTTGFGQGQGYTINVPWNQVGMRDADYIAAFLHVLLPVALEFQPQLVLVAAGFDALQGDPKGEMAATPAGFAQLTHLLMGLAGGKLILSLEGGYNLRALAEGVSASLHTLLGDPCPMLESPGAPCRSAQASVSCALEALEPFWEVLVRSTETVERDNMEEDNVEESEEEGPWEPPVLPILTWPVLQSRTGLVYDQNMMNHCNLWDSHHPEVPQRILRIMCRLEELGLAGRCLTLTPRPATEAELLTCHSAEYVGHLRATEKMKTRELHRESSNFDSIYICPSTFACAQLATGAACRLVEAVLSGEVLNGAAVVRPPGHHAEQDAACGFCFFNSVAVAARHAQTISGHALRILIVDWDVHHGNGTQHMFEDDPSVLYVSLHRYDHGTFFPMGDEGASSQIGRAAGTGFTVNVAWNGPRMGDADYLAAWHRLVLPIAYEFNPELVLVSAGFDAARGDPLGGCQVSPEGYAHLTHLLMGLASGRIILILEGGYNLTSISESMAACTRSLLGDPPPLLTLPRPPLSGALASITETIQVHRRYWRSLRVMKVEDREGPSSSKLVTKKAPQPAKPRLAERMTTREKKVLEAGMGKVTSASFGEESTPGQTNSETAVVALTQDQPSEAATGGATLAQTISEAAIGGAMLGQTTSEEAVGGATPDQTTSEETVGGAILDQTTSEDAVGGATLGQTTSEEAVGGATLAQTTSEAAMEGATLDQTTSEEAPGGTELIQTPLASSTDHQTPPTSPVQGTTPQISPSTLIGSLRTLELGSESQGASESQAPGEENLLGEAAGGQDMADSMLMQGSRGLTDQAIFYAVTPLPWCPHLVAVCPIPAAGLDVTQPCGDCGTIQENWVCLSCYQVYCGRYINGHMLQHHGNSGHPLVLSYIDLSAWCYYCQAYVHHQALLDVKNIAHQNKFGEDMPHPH
The data set can be described thus: HDAC enzyme fluorescence assay, HDAC 6. To be noted: recombinant HDAC enzyme, Boc-Lys(acetyl)-AMC. It counts as biochemical. How it is done: Particularly, HDAC enzyme analysis was performed based on a uniform fluorescence emission assay. First, the compounds of examples of the present invention or comparative example 1 were diluted at different concentrations, which were treated to the analysis buffer containing 25 mM HEPES (pH 8.0), 137 mM NaCl, 1 mM MgCl2 and 2.7 mM KCL, followed by culture of the recombinant HDAC enzyme. 10 minutes later, Boc-Lys(acetyl)-AMC, the fluorescence inducing substrate, was added thereto, followed by further culture at 37° C. At this time, the concentration of the fluorescence inducing substrate and the culture time were adjusted according to the isotypes of the HDAC enzyme. The reaction was terminated by treating trypsin at room temperature for 20 minutes. The fluorescence intensity was measured using a fluorescence analyzer at an excitation wavelength of 380 nm and an emission wavelength of 460 nm, respectively. The inhibition rate was calculated from the measured fluorescence intensity of each well with comparing to that of the control well. IC50 of the compound was calculated by analyzing the dose-reaction inhibition curve.

Broadly, the GI50 is the concentration that inhibits growth by half. In general, IC50 refers to the midpoint of a concentration-inhibition curve. On to `CCCSS/C=C\C[S+]([O-])c1cccc(OC)c1` (centres unmarked) [Example 18, (Z)-1-(3-(3-methoxyphenylsulfinyl)prop-1-enyl)-2-propyldisulfane], for which the GI50 in data set [1] worked out at 1710 nM; in data set [3], 2060 nM. Moreover, the “changes in weight of mice / visible toxicity (FIG. 1)” value in data set [2] is given as “only normal weight increases were observed”. In addition, the IC50 on HDAC 6 was found to be 1100 nM.

On to `COc1ccc([S+]([O-])C/C=C\SSCc2ccccc2)cc1` (centres unmarked) [Example 32, (Z)-1-benzyl-2-(3-(4-methoxyphenylsulfinyl)prop-1-enyl)disulfane], for which the 50% growth inhibitory concentration (GI50) in data set [1] was found to be 3820 nM; in data set [3], 3120 nM. Besides, the “changes in weight of mice / visible toxicity (FIG. 1)” value in data set [2] is on record as “only normal weight increases were observed”. The IC50 at HDAC 6 worked out at 550 nM.
